# Assays:
# SynPOR = target: T1, SynPOR (Synechocystis sp. PCC 6803, UniProt Q59987); test: […] K fluorescence emission shift of Pchlide; type: binding; conditions: 5 µM Pchlide, 15 µM enzyme, 200 µM dinucleotide, no lipids, pH 7.1
# T1 construct: gene por; recombinant, E. coli BL21(DE3)pRIL, cloned in a previous study; tag not described here
# AtPORB = target: T2, AtPORB (Arabidopsis thaliana, UniProt P21218); test: […] K fluorescence emission shift of Pchlide; type: binding; conditions: 5 µM Pchlide, 15 µM enzyme, 200 µM NADP+, 100 µM OPT lipids, pH 7.1; inactive complex
# T2 construct: gene PORB; cloned in a previous study
# T2 sequence (P21218 67-401): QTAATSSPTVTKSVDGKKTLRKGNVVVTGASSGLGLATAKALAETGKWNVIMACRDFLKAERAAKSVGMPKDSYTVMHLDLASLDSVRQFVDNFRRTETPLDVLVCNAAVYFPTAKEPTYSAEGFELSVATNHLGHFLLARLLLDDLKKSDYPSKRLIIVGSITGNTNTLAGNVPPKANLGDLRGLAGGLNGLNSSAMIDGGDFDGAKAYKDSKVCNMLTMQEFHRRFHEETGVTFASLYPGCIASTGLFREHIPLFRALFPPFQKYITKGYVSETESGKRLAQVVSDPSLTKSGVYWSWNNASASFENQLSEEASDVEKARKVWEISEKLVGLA
# AtPORB_α10 = tested on: T3, AtPORB_α10; test: […] K fluorescence, Chlide/Pchlide ratio after […] s illumination, modified Michaelis-Menten fit; type: biochemical, Arabidopsis thaliana; conditions: 5 µM Pchlide, 15 µM enzyme, no lipids, pH 7.1, room temperature; apparent analogue of Km
# T3 construct: gene PORB; AtPORB with helix alpha10 of SynPOR; pET15b, E. coli
# T1 sequence (Q59987 whole entry): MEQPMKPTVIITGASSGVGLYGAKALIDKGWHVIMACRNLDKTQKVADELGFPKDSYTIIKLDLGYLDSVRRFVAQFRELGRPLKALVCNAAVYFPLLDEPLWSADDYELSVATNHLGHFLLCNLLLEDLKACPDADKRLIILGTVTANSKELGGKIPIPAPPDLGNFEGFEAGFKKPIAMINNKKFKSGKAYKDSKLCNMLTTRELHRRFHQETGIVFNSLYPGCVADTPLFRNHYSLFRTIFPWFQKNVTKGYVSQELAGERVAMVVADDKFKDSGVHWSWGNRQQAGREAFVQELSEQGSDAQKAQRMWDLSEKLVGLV
Compound,77 K fluorescence emission shift of Pchlide (SynPOR),77 K fluorescence emission shift of Pchlide (AtPORB),Km (AtPORB_α10) [µM]
NC(=O)c1ccc[n+]([C@@H]2O[C@H](COP(=O)(O)OP(=O)(O)OC[C@H]3O[C@@H](n4cnc5c(N)ncnc54)[C@H](OP(=O)(O)O)[C@@H]3O)[C@@H](O)[C@H]2O)c1 [NADP+],Introduction of NADP^+ into the lipid-free mixture induced further red shift,AtPORB:Pchlide can bind NADP^+ in the presence of OPT lipids,
NC(=O)C1=CN([C@@H]2O[C@H](COP(=O)(O)OP(=O)(O)OC[C@H]3O[C@@H](n4cnc5c(N)ncnc54)[C@H](OP(=O)(O)O)[C@@H]3O)[C@@H](O)[C@H]2O)C=CC1 [NADPH],,,22.6 ± 3.3
